Test results taken from US20190343908A1, “Therapeutic Combination for the Treatment of Cancer” (Nerium Biotechnology Inc., priority 2011, published 2019).

Legend:
[1] = test system: PC3 (human prostate cancer); test: Sulforhodamine B viability assay, PC3; format: cell-based
Description: (§1) Three different viability assays were chosen to complement each other and yielded results dependent on concentration and cell line: the Methyl Tetrazolium dye assay, the Sulforhodamine B fluorescent dye assay, and the Crystal Violet dye assay.
(§2) The Sulforhodamine B and Crystal Violet assays provide information about protein and were used to complement the Methyl-Tetrazolium dye assay. […] It is used for the quantification of cellular proteins of cultured cells. The assay using Crystal Violet, a dye that binds electrostatically to proteins and stains DNA, provides a reliable, simple assay for measuring viability of cells.
(§3) The Methyl Tetrazolium, Sulforhodamine B, and Crystal Violet assays were used to assess cell viabilities. The incubation times were 24 hours, 48 hours, and 72 hours. The Nerium oleander extract Anvirzel™ (a hot water extract of oleander obtained from Salud Integral, Honduras) was tested in concentrations ranging from 0.01 ng/mL to 10 ng/mL.
(§4) Cells were detached by trypsinization (Trypsin-0.25% EDTA, Invitrogen, 25200-072) during the logarithmic phase of culture growth and plated in 96-well plates (18.000 cells/well) (Corning, Costar 359) in a final volume of 200 μl of medium per well. […] The absorbance was measured after 24 hours, 48 hours, and 72 hours of incubation.
(§5) For the Sulforhodamine B assay, 96-well plates were fixed by 10% trichloroacetic acid (Fluka, 91228) and were incubated at 4° C. for 1 hour. Afterwards, plates were rinsed with water and cells were stained with 0.4% Sulforhodamine B (Sigma, 341738), dissolved in 1% acetic acid (Carlo Ebra, 401422) for 15 minutes at room temperature (RT). The unbound stain was washed twice with 1% acetic acid. Finally, 10 mM Tris Buffer pH 10.5 (Sigma, T6791) was added to dissolve the dye.
(§6) The optical density of each plate was measured on a μQuant spectrophotometer and the data were analyzed with Gen5 software (μQuant Biomolecular Spectrophotometer MQX200 and Gen5™ Microplate Data Collection & Analysis software, BioTek® Instruments. Inc, April 2008). Absorbance was measured at 570 nm for all assays and a second wavelength was measured in order to subtract noise. For the Methyl-Tetrazolium assay this second wavelength was 630 nm and for the Sulforhodamine B and Crystal Violet assays it was 690 nm.

[2] = test system: T47D (human breast cancer); test: Sulforhodamine B viability assay, T47D; format: cell-based; design: key: absorbance (optical density) at 570 nm, second wavelength subtracted
Description: as §1, §2, §3, §4, §5, §6

## N.N.[Cl][Pt][Cl] [cisplatin]
[1]; PC3 Run 2, 48 h, 0.1 μg/ml CDDP
  SRB Average: 2.279
[1]; PC3 Run 2, 48 h, 1 μg/ml CDDP
  SRB Average: 2.066
[1]; PC3 Run 2, 48 h, 10 μg/ml CDDP
  SRB Average: 2.144
[1]; PC3 Run 2, 48 h, 100 μg/ml CDDP
  SRB Average: 1.77
[1]; PC3 Run 2, 72 h, 0.1 μg/ml CDDP
  SRB Average: 2.069
[1]; PC3 Run 2, 72 h, 1 μg/ml CDDP
  SRB Average: 1.64
[1]; PC3 Run 2, 72 h, 10 μg/ml CDDP
  SRB Average: 1.63
[1]; PC3 Run 2, 72 h, 100 μg/ml CDDP
  SRB Average: 1.271
[1]; PC3 Run 3, 24 h, 0.1 μg/ml CDDP
  SRB Average: 1.595
[1]; PC3 Run 3, 24 h, 1 μg/ml CDDP
  SRB Average: 1.326
[1]; PC3 Run 3, 24 h, 10 μg/ml CDDP
  SRB Average: 1.24
[1]; PC3 Run 3, 24 h, 100 μg/ml CDDP
  SRB Average: 1.125
[1]; PC3 Run 3, 48 h, 0.1 μg/ml CDDP
  SRB Average: 1.52
[1]; PC3 Run 3, 48 h, 1 μg/ml CDDP
  SRB Average: 1.1
[1]; PC3 Run 3, 48 h, 10 μg/ml CDDP
  SRB Average: 1.474
[1]; PC3 Run 3, 48 h, 100 μg/ml CDDP
  SRB Average: 1.153
[1]; PC3 Run 3, 72 h, 0.1 μg/ml CDDP
  SRB Average: 1.643
[1]; PC3 Run 3, 72 h, 1 μg/ml CDDP
  SRB Average: 1.069
[1]; PC3 Run 3, 72 h, 10 μg/ml CDDP
  SRB Average: 1.122
[1]; PC3 Run 3, 72 h, 100 μg/ml CDDP
  SRB Average: 0.839
[2]; T47D Run 1, 24 h, 1 μg/ml CDDP
  SRB Average: 1.786
[2]; T47D Run 1, 24 h, 10 μg/ml CDDP
  SRB Average: 1.586
[2]; T47D Run 1, 24 h, 100 μg/ml CDDP
  SRB Average: 1.494
[2]; T47D Run 1, 48 h, 0.1 μg/ml CDDP
  SRB Average: 2.029
[2]; T47D Run 1, 48 h, 1 μg/ml CDDP
  SRB Average: 1.913
[2]; T47D Run 1, 48 h, 10 μg/ml CDDP
  SRB Average: 1.768
[2]; T47D Run 1, 72 h, 0.1 μg/ml CDDP
  SRB Average: 2.34
[2]; T47D Run 1, 72 h, 1 μg/ml CDDP
  SRB Average: 1.863
[2]; T47D Run 1, 72 h, 10 μg/ml CDDP
  SRB Average: 1.428
[2]; T47D Run 2, 24 h, 0.1 μg/ml CDDP
  SRB Average: 2.474
[2]; T47D Run 2, 24 h, 1 μg/ml CDDP
  SRB Average: 1.601
[2]; T47D Run 2, 24 h, 10 μg/ml CDDP
  SRB Average: 1.417
[2]; T47D Run 2, 24 h, 100 μg/ml CDDP
  SRB Average: 1.102
[2]; T47D Run 2, 48 h, 0.1 μg/ml CDDP
  SRB Average: 2.112
[2]; T47D Run 2, 48 h, 1 μg/ml CDDP
  SRB Average: 1.969
[2]; T47D Run 2, 48 h, 10 μg/ml CDDP
  SRB Average: 1.988
[2]; T47D Run 2, 48 h, 100 μg/ml CDDP
  SRB Average: 1.708
[2]; T47D Run 2, 72 h, 0.1 μg/ml CDDP
  SRB Average: 1.969
[2]; T47D Run 2, 72 h, 1 μg/ml CDDP
  SRB Average: 1.201
[2]; T47D Run 2, 72 h, 10 μg/ml CDDP
  SRB Average: 1.567
[2]; T47D Run 2, 72 h, 100 μg/ml CDDP
  SRB Average: 1.513
[2]; T47D Run 3, 24 h, 0.1 μg/ml CDDP
  SRB Average: 1.615
[2]; T47D Run 3, 24 h, 1 μg/ml CDDP
  SRB Average: 1.846
[2]; T47D Run 3, 24 h, 10 μg/ml CDDP
  SRB Average: 1.368
[2]; T47D Run 3, 24 h, 100 μg/ml CDDP
  SRB Average: 1.34
[2]; T47D Run 3, 48 h, 0.1 μg/ml CDDP
  SRB Average: 2.223
[2]; T47D Run 3, 48 h, 1 μg/ml CDDP
  SRB Average: 2.03
[2]; T47D Run 3, 48 h, 10 μg/ml CDDP
  SRB Average: 1.974
[2]; T47D Run 3, 48 h, 100 μg/ml CDDP
  SRB Average: 1.758
[2]; T47D Run 3, 72 h, 0.1 μg/ml CDDP
  SRB Average: 2.044
[2]; T47D Run 3, 72 h, 1 μg/ml CDDP
  SRB Average: 1.344
[2]; T47D Run 3, 72 h, 10 μg/ml CDDP
  SRB Average: 1.461
